Laboratory results from patent publication US20250340593A1, “METHOD AND COMPOSITION FOR TREATING NEURODEGENERATIVE DISORDER” (priority 2022, published 2025).
Residues, ends and D or L forms follow the SMILES beside them.

Tests used:
[1] = system: DIV 21 primary hippocampal neurons; experiment: Aβ synaptic targeting in primary hippocampal neurons; type: cell-based, mouse; details: 500 nM biotinylated HMW Aβo enriched preparation aggregated 2 h with equimolar peptide; neurons treated 30 min
Procedure: Primary hippocampal neuron cultures were prepared from E17-18 C57Bl/6JRj mice. Briefly, hippocampi were removed, cut into pieces in Hank's buffered salt solution (HBSS), digested in HBSS supplemented with trypsin (0.25% v/v) and rinsed in HBSS and BSA 0.2%. Next, hippocampi were triturated in Neurobasal medium without phenol red supplemented with L-glutamine (2 mM), 2% B27, 1% penicillin-streptomycin (10000 U/mL). Hippocampal neurons were then plated onto poly-L-lysine coated coverslips (0.5 mg/ml) at a low density (15×10^3 cells/cm2) for synaptic targeting experiments. Neurons were subsequently cultured for 21 DIV in supplemented Neurobasal medium at 37° C. under 5% CO2, one-half of the media being changed once a week. […]
Treated hippocampal neuron cultures were fixed with 4% paraformaldehyde in 0.1 M phosphate buffer at RT prior to immunostaining. After a blocking step in non-permeabilizing condition (PBS, 1% BSA) surface-bound biotinylated Aβ was detected with fluorescently tagged streptavidin (Alexa Fluor 647, Invitrogen) incubated for 3 h at RT. […]
Immunostainings images were obtained using a confocal Zeiss LSM 880 AiryScan microscope equipped with two diode lasers (405, 561 nm), a laser gaz argon (488 nm) and a laser gaz He/Ne ([…]), a 63x objective and an additional zoom factor (3x). […] Biotinylated Aβ clusters were quantified in each ROI in collapsed Z-stacks.

[2] = system: hippocampal slices from 8-month-old WT and APP/PS1 mice; experiment: LTP field potential recordings in acute hippocampal slices; set-up: species or system mouse; details: for LTP amplitude computed as fEPSP slope 50 to 60 min after TBS / effect on LTP responses in WT slices: peptide 500 nM for 40 min before TBS
Procedure: Animals specimens Embryonic day 17-18 (E17-18) C57BI/6JRj wild-type male and female mice were used for primary hippocampal cell cultures. Electrophysiological field potential recording experiments were performed on 8-month-old wild type and transgenic heterozygous male APP/PS1-21 mice generated on a C57Bl/6 background and expressing a transgene combining human APP with the Swedish mutation (APPKM670/671NL) and mutated L166P human presenilin 1 (PS1) under the Thyl promoter (Radde et al, 2006). Wild type and APP/PSI mice were generated as described previously (Radde et al, 2006) and genotyping was carried out to reveal the presence or absence of APP and PSI transgenes. The study was conducted in accordance with the European Community Council directive 2010/63/EU on the protection of animals used for experimental and scientific purposes. Animal care and treatment procedures were realized according to the guidelines approved by the French Ethical Committee of the Lyon 1 University (DR2013-47).
Local field potential recordings (LFP) were performed on acute coronal hippocampal slices from 8-month-old wild type and transgenic heterozygous male APP/PS1-21 mice to measure baseline synaptic response and long-term potentiation (LTP) of Schaffer collaterals to CAI pyramidal cell synapses. Hippocampal slices (400 μm thick) were cut using a vibratome (Leica VT1200S) and incubated at room temperature in artificial cerebrospinal fluid (ACSF) containing (in mM): 124 NaCl, 10 glucose, 1.25 NaH2PO4, 2.5 KCl, 26 NaHCO3, 1.3 MgCl2, and 2.5 CaCl2, bubbled with 95% 02 and 5% CO2, pH 7.4) for 1 h prior to recording. Field excitatory postsynaptic potentials (fEPSPs) were recorded extracellularly in stratum radiatum of CAI region of the dorsal hippocampus in presence of gammaaminobutyric acid (GABA)-A receptor antagonist picrotoxin (100 μM). Electrical stimulation was realized with a bipolar tungsten electrode placed in CAI stratum radiatum and fEPSPs were measured using borosilicate glass microelectrodes (˜1-3 M (2) filled with ACSF. The tip of the recording electrode was located close to the slice surface. LFP were amplified and low-pass filtered at 3 kHz using a differential amplifier (X1000, WPI) and data acquisition and analyses were carried out using a National Instrument interface coupled with Elphy software (G. Sadoc, CNRS, France). LFP were sampled at 10 kHz and fEPSPs initial slope was computed to quantify synaptic responses. After baseline recordings of synaptic activity evoked at 0.2 Hz for at least 10 minutes, slices were incubated in ACSF or treated with the CP or BP at 500 nM for 40 min before inducing LTP with the theta burst stimulation (TBS). The effects of the peptides on synaptic responses were tested in a series of pilot experiments on mice of both genotypes. […] TBS consisted of 10 trains separated by 30 s, each train composed of 6 bursts at 5 Hz and each burst providing 4 pulses at 100 Hz. Before LTP induction, precautions were taken to ensure that approximately the same amplitude of fEPSPs was obtained in baseline for the different experiments to achieve the same level of cooperativity in each group. After LTP induction, fEPSPs were recorded for at least 60 min.

Aβ preparation (30 μM) = target: T1, Aβ preparation (30 μM) (Homo sapiens, UniProt P05067); experiment: Transmission electron microscopy of Aβ aggregates; details: for morphology of Aβ aggregates by TEM: Aβ 30 μM with equimolar peptide, 24 h
T1 construct: purchased Bachem; host or cells: chemical synthesis
T1 sequence (P05067 672-713 limits assumed): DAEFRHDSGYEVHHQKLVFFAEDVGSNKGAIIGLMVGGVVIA
Procedure: Prior to imaging, 10 μL of an Aβ preparation (30 μM) aggregated for 24 h at 37° C. in the presence or absence of equimolar concentration of the CP or BP were deposited onto Formvar-C coated mesh nickel grids. After a 10 min incubation step at RT, grids were rinsed with sterile dH20. Samples were subsequently stained using 5% uranyl acetate for 1 minute in the dark to increase contrast and were allowed to air dry for 2 minutes. Finally, they were visualized with a JEM 1400 Transmission Electron Microscope (Jcol Tokyo, Japan), operating at 120 kV, initially imaged at low magnification (20,000X), and thereafter at 120,000X using a Gatan Orius 1000 digital micrograph software.

| Molecule | synapses colocalized with Aβ [1] | LTP amplitude computed as fEPSP slope 50 to 60 min after TBS ([2]; APP/PS1 slices) [%] | LTP amplitude computed as fEPSP slope 50 to 60 min after TBS ([2]; WT slices) [%] | effect on LTP responses in WT slices ([2]; WT slices) | morphology of Aβ aggregates by TEM (Aβ preparation (30 μM)) | self-assembly structures of peptide alone by TEM (Aβ preparation (30 μM)) | change in baseline synaptic responses before LTP induction ([2]; 500 nM, during the 40 min prior to LTP induction, mice of both genotypes) |
| --- | --- | --- | --- | --- | --- | --- | --- |
| NDYKDDDDKGAAA [CP, reference compound] | ~40% | 119.8±9.1 | 191.4±18.3 | does not alter LTP responses | characteristic twisted morphology | does not induce any 3-dimensional self-assembly structures |  |
| CC(C)[C@H](NC(=O)[C@H](Cc1ccc(O)cc1)NC(=O)[C@@H](NC(=O)[C@H](CO)NC(=O)[C@H](Cc1c[nH]c2ccccc12)NC(=O)[C@H](CO)NC(=O)[C@H](CCCCN)NC(=O)[C@H](Cc1ccc(O)cc1)NC(=O)[C@H](CCCNC(=N)N)NC(=O)[C@H](CO)NC(=O)[C@H](CCCCN)NC(=O)[C@H](CCCCN)NC(=O)[C@H](CCCNC(=N)N)NC(=O)[C@@H](N)CCCCN)C(C)C)C(=O)NCC(=O)O [BP, KRKKSRYKSWSVYVG] (H-KRKKSRYKSWSVYVG-OH; N-terminus and C-terminus assumed) | only a small proportion | 226.7±40.5 |  | does not alter LTP responses | mainly non-fibrillar and amorphous in shape | does not induce any 3-dimensional self-assembly structures | did not induce a change |
